Reference: PMC6151740, “Pharmacokinetics, Tissue Distribution, and Elimination of Three Active Alkaloids in Rats after Oral Administration of the Effective Fraction of Alkaloids from Ramulus Mori, an Innovative Hypoglycemic Agent” (Molecules : A Journal of Synthetic Chemistry and Natural …, 2017)
Read-outs that look alike come from different tables or passages of the source.

Tests used:
[1] = Tissue distribution in rats after oral SZ–A; assay type: in vivo; details: Sprague-Dawley, pancreas, rat, SZ–A 40 mg/kg p.o., 0.25, 0.5 and 2 h, n = 3, read-out: tissue to plasma ratio (T/P) in the pancreas
Procedure: Three groups of rats (three rats in each group) were administered with a single oral dose of SZ–A at 40 mg/kg. Rats each were sacrificed and various tissues, including liver, kidney, pancreas, stomach, duodenum, jejunum, ileum, cecum, colon, and the content in the gastrointestinal tract were collected at 0.25, 0.5, and 2 h time points. One additional rat was sacrificed predose to provide control tissues for analysis. After removing blood or content and weighing, each sample was individually homogenized with normal saline solution (1:3, w/v for tissue; 1:9, w/v for content) using a tissue homogenizer (Polytron PT1600E, Kinematica, Luzern, Switzerland) and stored at −20 °C until LC-MS/MS analysis.

[2] = Plasma pharmacokinetic study in rats after oral and intravenous administration of SZ–A or purified DNJ; assay type: in vivo, rat; details: for AUC(0-inf) / AUC(0-t) / Cmax / Tmax / half-life / clearance / MRT last / MRT inf / Vd / CLz: rat plasma, n = 5; for clearance: read-out: CLz (converted); for MRT last: read-out: MRT0–t; for MRT inf: read-out: MRT0–∞; for bioavailability: plasma, read-out: F (oral absolute bioavailability); for bioavailability / time to reach maximum plasma concentration (Cmax): rat; for time to reach maximum plasma concentration (Cmax): after oral administration of SZ–A (40, 200, 1000 mg/kg), upper bound over doses
Procedure: The oral dosing solutions used for all animal studies were prepared by dissolving in water. Thirty rats weighed 250–270 g after acclimation were randomly divided into six groups of five animals each. For oral administration, rats were treated with SZ–A (40, 200, 1000 mg/kg) or purified DNJ (15 mg/kg) dissolve in water. Blood samples (about 0.25 mL) were collected via the postorbital venous plexus veins under ether anesthesia into heparinized polythene tubes before dosing and at 0.08, 0.17, 0.33, 0.50, 1, 2, 3, 4, 6, 8, 12, 24 and 36 h after drug administration. For intravenous dosing, rats were given SZ–A (4 mg/kg) or DNJ (1.5 mg/kg) dissolved in normal saline solution through the tail vein. Then blood samples were collected at 0.03, 0.08, 0.17, 0.33, 0.67, 1, 2, 4, 6, 8, 12, 24, and 36 h under similar conditions. Considering the physical limit of blood in rats, during the process of the pharmacokinetic experiment, each rat was received 0.25 mL of sterile isotonic saline at each time point after blood sampling for compensation of body fluid loss, and the blood loss was also corrected at a definite degree. Plasma was separated by centrifuging the blood samples at 1660× g for 5 min and stored at −20 °C until LC-MS/MS analysis. Data fitting and pharmacokinetic parameter estimates were carried out using non–compartmental analysis via WinNonlin Software (version 6.1, Pharsight Corporation, Mountain View, CA, USA). F was calculated according to the formula: F (%) = (AUC oral/AUC i.v.) × (dose i.v./dose oral) × 100.
The plasma, feces, urine, and bile samples (100 μL) were added to 1 μL of Tris aqueous solution (2 M), 10 μL of IS working solution (2 μg/mL), and 190 μL methanol–acetonitrile (25:75, v/v). The incubation supernatant samples (300 μL) were mixed with 1 μL Tris aqueous solution (2 M) and 10 μL of IS working solution (2 μg/mL). All mixtures were vortexed for 30 s followed by centrifugation at 18,880× g for 5 min, twice.
Briefly, the LC-MS/MS instrument consisted of a 1260 HPLC system (Agilent, Santa Clara, CA, USA) and API4000 triple quadrupole mass spectrometer (Applied Biosystems Sciex, Toronto, ON, Canada) with an electrospray ionization (ESI) source and Analyst software (version 1.5.2, Applied Biosystems Sciex, Toronto, ON, Canada) for data acquisition and processing. DNJ, FGM, DAB, and IS were separated in a Xbridge amide™ column (3.5 μm, 4.6 mm × 150 mm; Waters, Milford, MA, USA) with a gradient mobile phase of acetonitrile-water (0.1% ammonium hydroxide) at a flow rate of 0.7 mL/min. An ESI source was used in the positive ion mode. The optimized mass spectrometric condition was as follows: ion spray voltage, 5500 V; collision gas, 6 psi; curtain gas, 20 psi; ion source gas 1 (GS1), 45 psi; ion source gas 2 (GS2), 45 psi; temperature, 450 °C. The multiple reaction monitoring (MRM) transitions of DNJ, FGM, DAB, and IS were m/z 164.0→110.1 (declustering potential (DP) 50 V, collision energy (CE) 22 V, collision cell exit potential (CXP) 10 V), 148.0→112.1 (DP 66 V, CE 21 V, CXP 10 V), 134.0→98.0 (DP 60 V, CE 20 V, CXP 10 V) and 208.0→146.1 (DP 50 V, CE 27 V, CXP 10 V), respectively.

[3] = Sprague-Dawley, iv, SZ–A 4 mg/kg i.v.
[4] = Sprague-Dawley, iv, SZ–A 4 mg/kg i.v., read-out: Vd
[5] = Sprague-Dawley, po, SZ–A 40 mg/kg p.o. vs SZ–A 4 mg/kg i.v.
[6] = Sprague-Dawley, po, SZ–A 200 mg/kg p.o. vs SZ–A 4 mg/kg i.v.
[7] = Sprague-Dawley, po, SZ–A 1000 mg/kg p.o. vs SZ–A 4 mg/kg i.v.
[8] = Sprague-Dawley, po, SZ–A 40 mg/kg p.o.
[9] = Sprague-Dawley, po, SZ–A 200 mg/kg p.o.
[10] = Sprague-Dawley, po, SZ–A 1000 mg/kg p.o.

**Q.** Which Kp [1] does the source give for `OC[C@H]1NC[C@@H](O)[C@@H]1O` [DAB, 1,4-dideoxy-1,4-imino-D-arabinitol] here?
**A.** 0.09 to 0.59

**Q.** What about the AUC(0-inf) [2, 3] of the same compound?
**A.** 129 ± 20.1 ng·h/mL

**Q.** What about the AUC(0-t) [2, 3] of the same compound?
**A.** 124 ± 20.8 ng·h/mL

**Q.** And the Cmax [2, 3]?
**A.** 625 ± 183 ng/mL

**Q.** What about the Tmax [2, 3] of the same compound?
**A.** 0.033 h

**Q.** And the half-life [2, 3]?
**A.** 0.18 ± 0.03 h

**Q.** And the clearance [2, 3]?
**A.** 25.6 mL/min/kg

**Q.** And the MRT last [2, 3]?
**A.** 0.18 ± 0.04 h

**Q.** What about the MRT inf [2, 3] of the same compound?
**A.** 0.21 ± 0.05 h

**Q.** What about the Vd [2, 4] of the same compound?
**A.** 0.401 ± 0.0408 L/kg

**Q.** And the bioavailability [2, 5]?
**A.** 78.2%

**Q.** What about the bioavailability [2, 6] of the same compound?
**A.** 56.6%

**Q.** And the bioavailability [2, 7]?
**A.** 40.1%

**Q.** And the AUC(0-inf) [2, 8]?
**A.** 978 ± 140 ng·h/mL

**Q.** And the AUC(0-t) [2, 8]?
**A.** 969 ± 147 ng·h/mL

**Q.** And the Cmax [2, 8]?
**A.** 708 ± 171 ng/mL

**Q.** What about the Tmax [2, 8] of the same compound?
**A.** 0.67 ± 0.29 h

**Q.** What about the half-life [2, 8] of the same compound?
**A.** 1.22 ± 0.16 h

**Q.** What about the MRT last [2, 8] of the same compound?
**A.** 1.32 ± 0.18 h

**Q.** And the MRT inf [2, 8]?
**A.** 1.42 ± 0.25 h

**Q.** What about the AUC(0-inf) [2, 9] of the same compound?
**A.** 3560 ± 729 ng·h/mL

**Q.** And the AUC(0-t) [2, 9]?
**A.** 3510 ± 716 ng·h/mL

**Q.** What about the Cmax [2, 9] of the same compound?
**A.** 2000 ± 656 ng/mL

**Q.** And the Tmax [2, 9]?
**A.** 0.57 ± 0.09 h

**Q.** What about the half-life [2, 9] of the same compound?
**A.** 1.38 ± 0.23 h

**Q.** And the MRT last [2, 9]?
**A.** 1.95 ± 0.35 h

**Q.** What about the MRT inf [2, 9] of the same compound?
**A.** 2.09 ± 0.29 h

**Q.** And the AUC(0-inf) [2, 10]?
**A.** 12900 ng·h/mL

**Q.** And the AUC(0-t) [2, 10]?
**A.** 12400 ng·h/mL

**Q.** What about the Tmax [2, 10] of the same compound?
**A.** 0.47 ± 0.14 h

**Q.** What about the half-life [2, 10] of the same compound?
**A.** 2.38 ± 0.97 h

**Q.** What about the MRT last [2, 10] of the same compound?
**A.** 4.09 ± 1.19 h

**Q.** What about the MRT inf [2, 10] of the same compound?
**A.** 4.66 ± 1.52 h

**Q.** What about the CLz ([2]; SZ–A 40 mg/kg p.o.) of the same compound?
**A.** 33.188 ± 4.977 mL/min/kg

**Q.** And the Vd ([2]; SZ–A 40 mg/kg p.o.)?
**A.** 3.5486 ± 0.9901 L/kg

**Q.** What about the CLz ([2]; SZ–A 200 mg/kg p.o.) of the same compound?
**A.** 46.928 ± 9.39 mL/min/kg

**Q.** And the Vd ([2]; SZ–A 200 mg/kg p.o.)?
**A.** 5.4724 ± 0.5717 L/kg

**Q.** And the CLz ([2]; SZ–A 1000 mg/kg p.o.)?
**A.** 65.433 ± 14.71 mL/min/kg

**Q.** What about the Vd ([2]; SZ–A 1000 mg/kg p.o.) of the same compound?
**A.** 13,892.2 ± 7160.0 mL/kg

**Q.** And the “time to reach maximum plasma concentration (Cmax)” value [2]?
**A.** ≤ 0.67 h

**Q.** For `OC[C@H]1NCC[C@@H](O)[C@@H]1O` [FGM, fagomine], which Kp [1] is on record?
**A.** 0.18 to 1.13

**Q.** What about the AUC(0-inf) [2, 3] of the same compound?
**A.** 284 ± 36.7 ng·h/mL

**Q.** And the AUC(0-t) [2, 3]?
**A.** 278 ± 36.8 ng·h/mL

**Q.** And the Cmax [2, 3]?
**A.** 1240 ± 304 ng/mL

**Q.** And the Tmax [2, 3]?
**A.** 0.033 h

**Q.** And the half-life [2, 3]?
**A.** 0.23 ± 0.03 h

**Q.** What about the clearance [2, 3] of the same compound?
**A.** 15.4 mL/min/kg

**Q.** What about the MRT last [2, 3] of the same compound?
**A.** 0.26 ± 0.06 h

**Q.** And the MRT inf [2, 3]?
**A.** 0.3 ± 0.06 h

**Q.** What about the Vd [2, 4] of the same compound?
**A.** 0.308 ± 0.061 L/kg

**Q.** What about the bioavailability [2, 5] of the same compound?
**A.** 77.5%

**Q.** And the bioavailability [2, 6]?
**A.** 38.5%

**Q.** What about the bioavailability [2, 7] of the same compound?
**A.** 29.9%

**Q.** And the AUC(0-inf) [2, 8]?
**A.** 2170 ± 770 ng·h/mL

**Q.** And the AUC(0-t) [2, 8]?
**A.** 2160 ± 778 ng·h/mL

**Q.** And the Cmax [2, 8]?
**A.** 1490 ± 756 ng/mL

**Q.** And the Tmax [2, 8]?
**A.** 0.67 ± 0.29 h

**Q.** What about the half-life [2, 8] of the same compound?
**A.** 0.93 ± 0.29 h

**Q.** What about the MRT last [2, 8] of the same compound?
**A.** 1.41 ± 0.27 h

**Q.** What about the MRT inf [2, 8] of the same compound?
**A.** 1.48 ± 0.34 h

**Q.** And the AUC(0-inf) [2, 9]?
**A.** 5400 ± 1470 ng·h/mL

**Q.** And the AUC(0-t) [2, 9]?
**A.** 5360 ± 1490 ng·h/mL

**Q.** What about the Cmax [2, 9] of the same compound?
**A.** 2250 ± 1060 ng/mL

**Q.** And the Tmax [2, 9]?
**A.** 0.57 ± 0.09 h

**Q.** And the half-life [2, 9]?
**A.** 1.44 ± 0.16 h

**Q.** And the MRT last [2, 9]?
**A.** 2.66 ± 0.52 h

**Q.** And the MRT inf [2, 9]?
**A.** 2.78 ± 0.54 h

**Q.** And the AUC(0-inf) [2, 10]?
**A.** 21800 ng·h/mL

**Q.** What about the AUC(0-t) [2, 10] of the same compound?
**A.** 20800 ng·h/mL

**Q.** What about the Cmax [2, 10] of the same compound?
**A.** 4390 ± 2360 ng/mL

**Q.** And the Tmax [2, 10]?
**A.** 1.3 ± 0.67 h

**Q.** What about the half-life [2, 10] of the same compound?
**A.** 2.73 ± 1.16 h

**Q.** And the MRT last [2, 10]?
**A.** 5.44 ± 1.77 h

**Q.** What about the MRT inf [2, 10] of the same compound?
**A.** 6.15 ± 2.11 h

**Q.** What about the CLz ([2]; SZ–A 40 mg/kg p.o.) of the same compound?
**A.** 21.965 ± 9.748 mL/min/kg

**Q.** And the Vd ([2]; SZ–A 40 mg/kg p.o.)?
**A.** 1.894 ± 1.3578 L/kg

**Q.** And the CLz ([2]; SZ–A 200 mg/kg p.o.)?
**A.** 42.625 ± 13.11 mL/min/kg

**Q.** And the Vd ([2]; SZ–A 200 mg/kg p.o.)?
**A.** 5.332 ± 1.8559 L/kg

**Q.** What about the CLz ([2]; SZ–A 1000 mg/kg p.o.) of the same compound?
**A.** 56.43 ± 21.033 mL/min/kg

**Q.** What about the Vd ([2]; SZ–A 1000 mg/kg p.o.) of the same compound?
**A.** 14,243.4 ± 9987.6 mL/kg

**Q.** What about the “time to reach maximum plasma concentration (Cmax)” value [2] of the same compound?
**A.** ≤ 1.30 h
